Results on 14 compounds are retold here after ChEMBL document CHEMBL1158406, “Design of novel quinazoline derivatives and related analogues as potent and selective ALK5 inhibitors” (Bioorg Med Chem Lett, 2009).

Data set [1] deals with T1, TGF-beta receptor type-1 (Homo sapiens, UniProt P36897).
T1 sequence (P36897 whole entry): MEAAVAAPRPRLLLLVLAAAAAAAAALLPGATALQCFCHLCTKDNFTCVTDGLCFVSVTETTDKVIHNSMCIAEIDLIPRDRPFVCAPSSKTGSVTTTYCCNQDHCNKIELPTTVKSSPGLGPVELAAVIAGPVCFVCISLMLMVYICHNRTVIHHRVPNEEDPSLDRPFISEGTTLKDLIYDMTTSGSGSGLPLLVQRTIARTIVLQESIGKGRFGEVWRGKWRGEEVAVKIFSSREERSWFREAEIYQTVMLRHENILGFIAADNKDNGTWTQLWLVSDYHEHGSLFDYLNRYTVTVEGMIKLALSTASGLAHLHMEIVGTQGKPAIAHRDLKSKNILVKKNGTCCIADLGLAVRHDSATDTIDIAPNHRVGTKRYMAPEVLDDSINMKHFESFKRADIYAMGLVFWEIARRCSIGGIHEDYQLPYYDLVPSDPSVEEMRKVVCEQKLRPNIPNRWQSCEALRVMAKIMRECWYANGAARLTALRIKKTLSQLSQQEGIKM
The data set can be described thus: Inhibition of TGF-beta-induced ALK5 in human HepG2 cells by luciferase assay. Format: cell-based.

The target in data set [2] is T1, TGF-beta receptor type-1. The data set can be described thus: Inhibition of human ALK5 kinase expressed in Sf9 cells.
The target in data set [3] is Mitogen-activated protein kinase 14 (Homo sapiens, UniProt Q16539). In words: Inhibition of GST-fused p38alpha.
The test system of data set [4] is Rattus norvegicus. The data set can be described thus: Inhibition of dimethylnitreosamine-induced collagen IA1 mRNA expression in rat liver at 5 mg/kg, po bid. Format: functional.
The nature of data set [5]: AUC in rat at 5 mg/kg, po. The arrangement: dose 5 mg/kg, route oral. Format: ADME, organism-based. The settings on record: plasma.
Data set [6] is described as follows: Bioavailability in rat at 5 mg/kg, po. In kind it is ADME, organism-based. Particulars: in vivo.
In data set [7] the test system is Rattus norvegicus. The data set can be described thus: Inhibition of dimethylnitreosamine-induced collagen IA1 mRNA expression in rat liver at 10 mg/kg, po bid. Format: functional.

Some results are limits rather than exact numbers.

Sequence of Mitogen-activated protein kinase 14 (Q16539 whole entry, the tested form may be a part): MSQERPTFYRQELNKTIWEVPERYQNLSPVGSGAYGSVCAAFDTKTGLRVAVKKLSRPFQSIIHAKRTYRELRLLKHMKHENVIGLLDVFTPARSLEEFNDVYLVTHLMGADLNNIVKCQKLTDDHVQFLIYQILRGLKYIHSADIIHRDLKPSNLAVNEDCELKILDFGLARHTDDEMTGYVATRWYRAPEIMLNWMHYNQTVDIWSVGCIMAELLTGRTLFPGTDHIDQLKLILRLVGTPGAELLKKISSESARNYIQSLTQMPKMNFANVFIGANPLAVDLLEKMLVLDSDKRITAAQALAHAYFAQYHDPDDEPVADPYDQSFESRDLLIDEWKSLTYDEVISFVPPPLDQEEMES

As a reminder, the IC50 is the concentration that gives 50% inhibition. Take `Cc1cccc(-c2nc(Nc3ccc4[nH]ncc4c3)c3ccccc3n2)n1`: the values for the IC50 (against TGF-beta receptor type-1 [1]; against TGF-beta receptor type-1 [2]; in data set [3]) were 90 nM, 25 nM and greater than 10000 nM, respectively.

Consider `Cc1csc(-c2nc(Nc3ccncc3)c3ccccc3n2)n1`, for which the half-inhibitory concentration (IC50) was 342 nM against TGF-beta receptor type-1 [1], 20 nM against TGF-beta receptor type-1 [2] and greater than 15000 nM in data set [3].

On to `Cc1cccc(-c2nc(Nc3ccc4c(cnn4C)c3)c3ccccc3n2)n1`, for which the IC50 at TGF-beta receptor type-1 [1] was 794 nM; against TGF-beta receptor type-1 [2], 588 nM; in data set [3] it was greater than 10000 nM.

Turning to `Cc1cccc(-c2nc(Nc3ccc4ncsc4c3)c3ccccc3n2)n1`, the figures for the IC50 (on TGF-beta receptor type-1 [1]; at TGF-beta receptor type-1 [2]; in data set [3]) were greater than 5000 nM, 646 nM and greater than 10000 nM, respectively.

As to `Cc1cccc(-c2nc(C)cc(Nc3ccncc3)n2)n1`, the concentration for half-maximal inhibition (IC50) on TGF-beta receptor type-1 [1] amounted to 745 nM; against TGF-beta receptor type-1 [2], 93 nM.

As to `Cc1cccc(-c2nc(Nc3ccncc3)c3sccc3n2)n1`, the results for the IC50 against TGF-beta receptor type-1 [1] and at TGF-beta receptor type-1 [2] were 60 nM and 22 nM, respectively.

Turning to `Cc1cc(Nc2nc(-c3cccc(C)n3)nc3ccccc23)ccn1`, the IC50 on TGF-beta receptor type-1 [1] is 1020 nM; at TGF-beta receptor type-1 [2] it was 199 nM; in data set [3], greater than 10000 nM.

As to `Cc1cccc(-c2nc(Nc3ccc4[nH]nnc4c3)c3ccccc3n2)n1`, the half-inhibitory concentration (IC50) on TGF-beta receptor type-1 [1] is greater than 5000 nM; at TGF-beta receptor type-1 [2], 3720 nM; in data set [3] it was greater than 10000 nM.

Take `Cc1cccc(-c2nc(Nc3cccc(C(N)=O)c3)c3ccccc3n2)n1`: the IC50 against TGF-beta receptor type-1 [1] was 545 nM; against TGF-beta receptor type-1 [2], 263 nM; in data set [3], greater than 10000 nM.

For the compound `Cc1cccc(-c2nc(Nc3ccncc3)c3c(C)csc3n2)n1`, the values for the IC50 at TGF-beta receptor type-1 [1] and at TGF-beta receptor type-1 [2] were 318 nM and 16 nM, respectively.

On to `c1ccc(-c2nc(Nc3ccncc3)c3ccccc3n2)cc1`, for which the IC50 stood at 2470 nM against TGF-beta receptor type-1 [1], 194 nM against TGF-beta receptor type-1 [2] and 1270 nM in data set [3].

The term inhibition in vivo denotes the relative decrease from the control value, in per cent. Usually AUC stands for the area under the concentration-time curve, a measure of exposure. Higher therefore signals high exposure. In general, bioavailability refers to dose-corrected exposure relative to a reference, in per cent. Read a low bioavailability as poor availability. `Cc1cccc(-c2nc(Nc3ccncc3)c3ccccc3n2)n1` gave an inhibition in vivo at 5 mg/kg in the data set on Rattus norvegicus [4] of 66%. Moreover, the 50% inhibitory concentration (IC50) was 95 nM at TGF-beta receptor type-1 [1], 25 nM against TGF-beta receptor type-1 [2] and 6720 nM in data set [3]. For the same compound, the exposure (AUC) in data set [5] came out at 524 ng·h/mL. In data set [6], this compound displayed a bioavailability of 40%. In addition, 10 mg/kg produced 73% inhibition in vivo in the data set on Rattus norvegicus [7].

As for `Clc1cccc(-c2nc(Nc3ccncc3)c3ccccc3n2)c1`, the concentration for half-maximal inhibition (IC50) against TGF-beta receptor type-1 [1] was 1610 nM; on TGF-beta receptor type-1 [2] it was 49 nM; in data set [3] it was greater than 15000 nM.

As to `Cc1cccc(-c2nc(Nc3ccncn3)c3ccccc3n2)n1`, the concentration for half-maximal inhibition (IC50) was 60 nM at TGF-beta receptor type-1 [1], 40 nM at TGF-beta receptor type-1 [2] and greater than 10000 nM in data set [3].
